We go through eleven compounds from patent US20150342961A1, “USE OF PROSTAGLANDIN E1 (PGE1) AND MISOPROSTOL FOR TREATING CHRONIC MYELOGENOUS/MYELOID LEUKEMIA (CML)” (priority 2014, published 2015).

Molecules are shown by their SMILES. Entries after “also recorded” stand apart in the source; their conditions may differ. Counter-ions that a name gives are not always drawn.

One data set deals with CML. The data set can be described thus: Screen of drugs simulating Tcf1 and Lef1 elimination, effect on CML. An excerpt:
(§1) In view of the Inventor's discovery, the Inventor set out to screen for drugs that would simulate the effect of eliminating Tcf1 and Lef1 for use in treatment of CML. Inventor experimented with the following drugs which are known to at least partly simulate the effect of eliminating Tcf1 and Lef1: Carbimazole, Cinchonine, Gibberellic acid, Hippeastrine hydrobromide, Dimaprit dihydrochloride, Spaglumic acid, and Vigabatrin. […] Inventor further experimented with Trichostatin A and Vorinostat. […] Inventor thereafter turned to prostaglandins for treating CML.

In another data set the test system is CML mouse model. The data set can be described thus: CML mouse model, survival of primary recipients after BMT. The data set is classed as in vivo. The conditions noted are these: for survival rate at about day 35 / time mice survived after bone marrow transplantation (BMT) before survival declined: 2.5 mg/kg daily, days 8-36 post-BMT. Here is the method: Bone marrow cells (BM) were isolated from donor mice, and HSCs were enriched and delivered the BCR-ABL gene using retroviral transduction. The BM cells were then transplanted into another group of recipient mice (called primary recipients here). The recipients will develop CML because the donor HSCs are transformed by BCR-ABL. On day 8 after BM transplantation (BMT), the primary recipients were treated with DMSO (the solvent to dissolve PGE1 or PGE2), PGE1, PGE2, Imatinib or both PGE1 and Imatinib. The survival of the recipients was monitored.
CML was established as in FIG. 5. During days 8-36 post-bone marrow transplantation (BMT), the recipients were treated daily with 2.5 mg/kg body weight PGE1 or PGE2, or the vehicle DMSO. Statistical significance was determined by log-rank test. Data are pooled results from 2 independent experiments with a total of 10 CML recipients tested under each condition.
CML was established as in FIG. 5. During days 8-80 post-BMT, the recipients were treated daily with Imatinib alone (100 mg/kg body weight, b.i.d.) or in combination with PGE1 (2.5 mg/kg body weight). Statistical significance was determined by log-rank test. Data are pooled results from 2 independent experiments with a total of 9-10 CML recipients tested under each condition.
(§2) CML animals were treated with the solvent dimethyl sulfoxide (DMSO) as a negative control (See FIG. 6).

The subject of data set [1] is LSCs. The data set can be described thus: LSCs from treated primary recipients transplanted into secondary recipients, propagation of CML. The data set is classed as in vivo, mouse. The note with it: secondary recipients untreated. Here is the method:
The CML model was established in the primary recipients as in FIG. 5. The recipients were then treated with Imatinib, PGE1 or Misoprostol alone, or in combination during days 8-21 post-BMT. The LSCs were isolated from the BM of the primary recipients and transplanted into another set of secondary recipients. The ability of LSCs to propagate CML in the secondary recipients were tracked.
Note that the LSCs were only treated with PGE1 or Misoprostol in the primary recipients for 2 weeks, and none of the secondary recipients were treated.
as §2

The test system of data set [2] is LSCs. The data set can be described thus: Screen of drugs simulating Tcf1 and Lef1 elimination, effect on LSCs.
Description: as §1

The test system of a further data set is HSCs.
Description: as §1

`CCOC(=O)n1ccn(C)c1=S` [Carbimazole]: the “effect on CML” value in the data set on CML is recorded as “no effect on CML”.

Consider `C=C[C@H]1C[N@@]2CC[C@H]1C[C@@H]2[C@@H](O)c1ccnc2ccccc12` [Cinchonine], for which the “effect on CML” value with CML is “no effect on CML”.

Turning to `CN(C)CCCSC(=N)N` [Dimaprit dihydrochloride], the “effect on CML” value with CML was “no effect on CML”.

In the case of `C=C1C[C@]23C[C@@]1(O)CC[C@H]2[C@@]12C=C[C@H](O)[C@@](C)(C(=O)O1)[C@H]2[C@@H]3C(=O)O` [Gibberellic acid], in the data set with CML, the “effect on CML” value is given as “no effect on CML”.

Regarding `CN1CCC2=C[C@H](O)[C@H]3OC(=O)c4cc5c(cc4[C@H]3[C@@H]21)OCO5` [Hippeastrine hydrobromide], the “effect on CML” value in the data set with CML is “no effect on CML”.

For `Cc1ccc(NC(=O)c2ccc(CN3CCN(C)CC3)cc2)cc1Nc1nccc(-c2cccnc2)n1` [Imatinib], in the data set with CML mouse model (Imatinib 100 mg/kg b.i.d. alone or with PGE1 2.5 mg/kg, days 8-80 post-BMT), the “effect of Imatinib or co-therapy on survival of CML recipients” value is “substantially extend the survival; also recorded: extended the survival of CML mice”. Also, the “day after BMT at which all CML mice had died” value in the data set with CML mouse model (Imatinib 100 mg/kg b.i.d., days 8-80 post-BMT) is roughly 62 days. Further, the “day after secondary BMT at which secondary recipients died” value with LSCs [1] (LSCs treated in primary recipients days 8-21 post-BMT) was roughly 40 days.

For the compound `CCCCC[C@H](O)/C=C/[C@H]1[C@H](O)CC(=O)[C@@H]1CCCCCCC(=O)O` [PGE1, Prostaglandin E1], in the data set on CML mouse model (CML mice), the “survival rate at about day 35” value is on record as roughly 50% and the “time mice survived after bone marrow transplantation (BMT) before survival declined” value is “approximately 17 days”. The “greater survival rate compared to the PGE2 mice” value in the data set with CML mouse model (CML mice, about day 35) is recorded as roughly 400%. The “ability of treated LSCs to propagate CML in secondary recipients” value in the data set on LSCs [1] (two-week treatment in primary recipients) was “superior to Imatinib treatment; also recorded: much less efficient in propagating CML”.

On to `CCCCC[C@H](O)/C=C/[C@H]1[C@H](O)CC(=O)[C@@H]1C/C=C\CCCC(=O)O` [PGE2, Prostaglandin E2], for which, in the data set on CML mouse model (CML mice), the “survival rate at about day 35” value was “about 10%” and the “time mice survived after bone marrow transplantation (BMT) before survival declined” value is listed as “approximately 17 days”.

Consider `CC(/C=C/C(=O)NO)=C\[C@@H](C)C(=O)c1ccc(N(C)C)cc1` [Trichostatin A], for which the “effect on LSCs” value in the data set with LSCs [2] is “strong effect on LSCs”.

Regarding `C=CC(N)CCC(=O)O` (stereo not drawn) [Vigabatrin], in the data set with CML, the “effect on CML” value is on record as “no effect on CML”.

With `O=C(CCCCCCC(=O)Nc1ccccc1)NO` [Vorinostat], the “effect on LSCs” value in the data set with LSCs [2] is given as “strong effect on LSCs”. Besides, in the data set with HSCs, the “toxicity to HSCs” value was “toxic to HSCs”.
